Results taken from patent US7008905B2, “Method of combating undesired plant growth on cereals” (BASF Aktiengesellschaft, priority 2000, dated 2006).

Legend:
Type in all cases: in vivo
Lamium purpureum [1] = assay: Post-emergence test, weed control; conditions: 2–4 weeks after treatment, rating 0-100 (100=death), Table 5
Description: (§1) These acetone solutions are diluted with water and the resulting formulations applied at dosage levels equivalent of about 0.030 to 0.240 kg per hectare of test compound per pot. After spraying the plants are placed an greenhouse benches and are cared for in the usual manner, commensurate with conventional greenhouse practices. From 2 to 4 weeks after treatment, the seedling plants are examined and rated according to the rating system provided above. A rating 0 indicates growth as untreated control, a rating 100 indicates death.

Galium aparine = assay: Post-emergence test, weed control; conditions: 2–4 weeks after treatment, rating 0-100 (100=death), Table 5
Description: as §1

Polygonum convolvulus [2] = assay: Post-emergence test, weed control; conditions: 2–4 weeks after treatment, rating 0-100 (100=death), Table 5
Description: as §1

Stellaria media = assay: Post-emergence test, weed control; conditions: 2–4 weeks after treatment, rating 0-100 (100=death), Table 5
Description: as §1

VIOAR = assay: Post-emergence test, weed control; conditions: 2–4 weeks after treatment, rating 0-100 (100=death), Table 5
Description: as §1

Setaria viridis = assay: Post-emergence test, weed control; conditions: 2–4 weeks after treatment, rating 0-100 (100=death), Table 5
Description: as §1

Matricaria inodora [3] = assay: Post-emergence test, weed control; conditions: 2–4 weeks after treatment, rating 0-100 (100=death), Table 5
Description: as §1

Lamium purpureum [4] = assay: Pre-emergence test, weed control; conditions: 3 weeks after treatment, rating 0-100 (100=death), Table 1
Description: (§2) The pre-emergence tests involve spraying a liquid formulation of the compound onto the soil in which the seeds of the plant species mentioned above has recently been sown.
(§3) The soil used in the tests is a prepared horticultural loam. The formulations used in the tests are prepared from solutions of the test compounds in acetone containing 0.4% by weight of an alkylphenol/ethylene oxide condensate available under the trade mark TRITON X-155.
(§4) In these tests untreated sown soil is used as control. The herbicidal effects of the test compounds are assessed visually three weeks after spraying the soil and are recorded an a 0 to 100 scale. A rating 0 indicates growth as untreated control, a rating 100 indicates death. An increase of 10 unit an the linear scale approximates to a 10% increase in the level of effect. The results of the assessment are set out in Tables 1 to 4.

Veronica persica = assay: Pre-emergence test, weed control; conditions: 3 weeks after treatment, rating 0-100 (100=death), Table 1
Description: as §2, §3, §4

Apera spica-venti = assay: Pre-emergence test, weed control; conditions: 3 weeks after treatment, rating 0-100 (100=death), Table 1
Description: as §2, §3, §4

Poa annua = assay: Pre-emergence test, weed control; conditions: 3 weeks after treatment, rating 0-100 (100=death), Table 1
Description: as §2, §3, §4

Polygonum convolvulus [5] = assay: Pre-emergence test, weed control; conditions: 3 weeks after treatment, rating 0-100 (100=death), Table 1
Description: as §2, §3, §4

Matricaria inodora [6] = assay: Pre-emergence test, weed control; conditions: 3 weeks after treatment, rating 0-100 (100=death), Table 1
Description: as §2, §3, §4

[7] = system: Triticum aestivum variety “Monopol”; assay: Pre-emergence test, selectivity; conditions: 3 weeks after treatment, rating 0-100 (100=death), Table 2
Description: as §2, §3
as §4, with “These acetone solutions are diluted with water and the resulting formulations applied at dosage levels corresponding to 15 g, 30 g, 60 g, 120 g or 240 g of active material per hectare in a volume equivalent to 900 liters per hectare. In” for “In”

[8] = system: Hordeum vulgare variety “Mammut”; assay: Pre-emergence test, selectivity; conditions: 3 weeks after treatment, rating 0-100 (100=death), Table 2
Description: as §2, §3
as §4, with “These acetone solutions are diluted with water and the resulting formulations applied at dosage levels corresponding to 15 g, 30 g, 60 g, 120 g or 240 g of active material per hectare in a volume equivalent to 900 liters per hectare. In” for “In”

HORVW = assay: Pre-emergence test, selectivity; conditions: 3 weeks after treatment, rating 0-100 (100=death), Table 2
Description: as §2, §3
as §4, with “These acetone solutions are diluted with water and the resulting formulations applied at dosage levels corresponding to 15 g, 30 g, 60 g, 120 g or 240 g of active material per hectare in a volume equivalent to 900 liters per hectare. In” for “In”

[9] = system: Triticum aestivum variety “Kanzler”; assay: Pre-emergence test, selectivity; conditions: 3 weeks after treatment, rating 0-100 (100=death), Table 2
Description: as §2, §3
as §4, with “These acetone solutions are diluted with water and the resulting formulations applied at dosage levels corresponding to 15 g, 30 g, 60 g, 120 g or 240 g of active material per hectare in a volume equivalent to 900 liters per hectare. In” for “In”

[10] = system: Triticum aestivum variety “Monopol”; assay: Post-emergence test, selectivity; conditions: 2–4 weeks after treatment, rating 0-100 (100=death), Table 6
Description: as §1

[11] = system: Triticum aestivum variety “Kanzler”; assay: Post-emergence test, selectivity; conditions: 2–4 weeks after treatment, rating 0-100 (100=death), Table 6
Description: as §1

With FC(F)(F)c1ccc(-c2nccc(Oc3cccc(C(F)(F)F)c3)n2)cc1 [TTP, 4-(3-trifluoromethylphenoxy)-2-(4-trifluoromethyl-phenyl)-pyrimidine] the “LAMPU weed control rating” value (Lamium purpureum [1]; 0.030 kg/ha) was 85, the “LAMPU weed control rating” value (Lamium purpureum [1]; 0.060 kg/ha) was 75 and the “LAMPU weed control rating” value (Lamium purpureum [1]; 0.120 kg/ha) was 92. For the same compound, the “LAMPU weed control rating” value (Lamium purpureum [1]; 0.240 kg/ha) was 93, the “GALAP weed control rating” value (Galium aparine; 0.030 kg/ha) was 60 and the “GALAP weed control rating” value (Galium aparine; 0.060 kg/ha) was 97. For the same compound, the “GALAP weed control rating” value (Galium aparine; 0.120 kg/ha) was 80, the “GALAP weed control rating” value (Galium aparine; 0.240 kg/ha) was 93 and the “POLCO weed control rating” value (Polygonum convolvulus [2]; 0.030 kg/ha) was 10. For the same compound, the “POLCO weed control rating” value (Polygonum convolvulus [2]; 0.060 kg/ha) was 60, the “POLCO weed control rating” value (Polygonum convolvulus [2]; 0.120 kg/ha) was 35 and the “POLCO weed control rating” value (Polygonum convolvulus [2]; 0.240 kg/ha) was 90. The “STEME weed control rating” value (Stellaria media; 0.030 kg/ha) was 50, the “STEME weed control rating” value (Stellaria media; 0.060 kg/ha) was 60 and the “STEME weed control rating” value (Stellaria media; 0.120 kg/ha) was 70. For the same compound, the “STEME weed control rating” value (Stellaria media; 0.240 kg/ha) was 90, the “VIOAR weed control rating” value (VIOAR; 0.030 kg/ha) was 90 and the “VIOAR weed control rating” value (VIOAR; 0.060 kg/ha) was 92. The “VIOAR weed control rating” value (VIOAR; 0.120 kg/ha) was 92, the “VIOAR weed control rating” value (VIOAR; 0.240 kg/ha) was 95 and the “SETVI weed control rating” value (Setaria viridis; 0.030 kg/ha) was 93. For the same compound, the “SETVI weed control rating” value (Setaria viridis; 0.060 kg/ha) was 97, the “SETVI weed control rating” value (Setaria viridis; 0.120 kg/ha) was 97 and the “SETVI weed control rating” value (Setaria viridis; 0.240 kg/ha) was 100. For the same compound, the “MATIN weed control rating” value (Matricaria inodora [3]; 0.030 kg/ha) was 50, the “MATIN weed control rating” value (Matricaria inodora [3]; 0.060 kg/ha) was 90 and the “MATIN weed control rating” value (Matricaria inodora [3]; 0.120 kg/ha) was 75. The “MATIN weed control rating” value (Matricaria inodora [3]; 0.240 kg/ha) was 90, the “LAMPU weed control rating” value (Lamium purpureum [4]; 0.015 kg/ha) was 99 and the “LAMPU weed control rating” value (Lamium purpureum [4]; 0.030 kg/ha) was 100. The “LAMPU weed control rating” value (Lamium purpureum [4]; 0.060 kg/ha) was 100, the “LAMPU weed control rating” value (Lamium purpureum [4]; 0.120 kg/ha) was 100 and the “LAMPU weed control rating” value (Lamium purpureum [4]; 0.240 kg/ha) was 100. The “VERPE weed control rating” value (Veronica persica; 0.015 kg/ha) was 100, the “VERPE weed control rating” value (Veronica persica; 0.030 kg/ha) was 100 and the “VERPE weed control rating” value (Veronica persica; 0.060 kg/ha) was 100. The “VERPE weed control rating” value (Veronica persica; 0.120 kg/ha) was 100, the “VERPE weed control rating” value (Veronica persica; 0.240 kg/ha) was 100 and the “APESV weed control rating” value (Apera spica-venti; 0.015 kg/ha) was 100. The “APESV weed control rating” value (Apera spica-venti; 0.030 kg/ha) was 100, the “APESV weed control rating” value (Apera spica-venti; 0.060 kg/ha) was 100 and the “APESV weed control rating” value (Apera spica-venti; 0.120 kg/ha) was 100. The “APESV weed control rating” value (Apera spica-venti; 0.240 kg/ha) was 100, the “POAAN weed control rating” value (Poa annua; 0.015 kg/ha) was 100 and the “POAAN weed control rating” value (Poa annua; 0.030 kg/ha) was 100. For the same compound, the “POAAN weed control rating” value (Poa annua; 0.060 kg/ha) was 100, the “POAAN weed control rating” value (Poa annua; 0.120 kg/ha) was 100 and the “POAAN weed control rating” value (Poa annua; 0.240 kg/ha) was 100. The “POLCO weed control rating” value (Polygonum convolvulus [5]; 0.015 kg/ha) was 80, the “POLCO weed control rating” value (Polygonum convolvulus [5]; 0.030 kg/ha) was 100 and the “POLCO weed control rating” value (Polygonum convolvulus [5]; 0.060 kg/ha) was 100. The “POLCO weed control rating” value (Polygonum convolvulus [5]; 0.120 kg/ha) was 100, the “POLCO weed control rating” value (Polygonum convolvulus [5]; 0.240 kg/ha) was 100 and the “MATIN weed control rating” value (Matricaria inodora [6]; 0.015 kg/ha) was 98. The “MATIN weed control rating” value (Matricaria inodora [6]; 0.030 kg/ha) was 99, the “MATIN weed control rating” value (Matricaria inodora [6]; 0.060 kg/ha) was 100 and the “MATIN weed control rating” value (Matricaria inodora [6]; 0.120 kg/ha) was 100. For the same compound, the “MATIN weed control rating” value (Matricaria inodora [6]; 0.240 kg/ha) was 100, the “TRZAWM rating (Selectivity)” value ([7]; 0.060 kg/ha) was 1 and the “TRZAWM rating (Selectivity)” value ([7]; 0.120 kg/ha) was 5. For the same compound, the “TRZAWM rating (Selectivity)” value ([7]; 0.240 kg/ha) was 15, the “HORVWM rating (Selectivity)” value ([8]; 0.015 kg/ha) was 5 and the “HORVWM rating (Selectivity)” value ([8]; 0.030 kg/ha) was 22. For the same compound, the “HORVWM rating (Selectivity)” value ([8]; 0.060 kg/ha) was 30, the “HORVWM rating (Selectivity)” value ([8]; 0.120 kg/ha) was 40 and the “HORVWM rating (Selectivity)” value ([8]; 0.240 kg/ha) was 45. The “HORVW rating (Selectivity)” value (HORVW; 0.015 kg/ha) was 10, the “HORVW rating (Selectivity)” value (HORVW; 0.030 kg/ha) was 25 and the “HORVW rating (Selectivity)” value (HORVW; 0.060 kg/ha) was 30. The “HORVW rating (Selectivity)” value (HORVW; 0.120 kg/ha) was 50, the “HORVW rating (Selectivity)” value (HORVW; 0.240 kg/ha) was 55 and the “TRZAWK rating (Selectivity)” value ([9]; 0.120 kg/ha) was 3. The “TRZAWK rating (Selectivity)” value ([9]; 0.240 kg/ha) was 10, the “TRZAWM rating (Selectivity)” value ([10]; 0.03 kg/ha) was 1 and the “TRZAWM rating (Selectivity)” value ([10]; 0.06 kg/ha) was 8. For the same compound, the “TRZAWM rating (Selectivity)” value ([10]; 0.12 kg/ha) was 8, the “TRZAWM rating (Selectivity)” value ([10]; 0.24 kg/ha) was 12 and the “TRZAWK rating (Selectivity)” value ([11]; 0.03 kg/ha) was 2. For the same compound, the “TRZAWK rating (Selectivity)” value ([11]; 0.06 kg/ha) was 8, the “TRZAWK rating (Selectivity)” value ([11]; 0.12 kg/ha) was 8 and the “TRZAWK rating (Selectivity)” value ([11]; 0.24 kg/ha) was 15.
